Series [1] relates to Heliothis armigera caterpillars. Kind of series: Heliothis armigera test. The format is in vivo. As to conditions: found effect, dipped soya bean shoots.
The test system of series [2] is mustard beetle larvae (Phaedon cochleariae). Kind of series: Phaedon larvae test. The series is classed as in vivo. To be noted: found effect, dipped cabbage leaves.
Series [3] concerns army worm caterpillars (Spodoptera frugiperda). Kind of series: Spodoptera frugiperda test. The series is classed as in vivo. To be noted: found effect, dipped cabbage leaves. The source says:
Spodoptera Frugiperda Test

For series [4], the system named is diamond-back moth caterpillars (Plutella xylostella, resistant strain). To be noted: found effect, dipped cabbage leaves.
Description: Plutella Test, Resistant Strain
After the desired period, the destruction in % is determined. 100% means that all of the caterpillars have been destroyed; 0% means that no caterpillars have been destroyed.

Data on three compounds can be found in patent US8389440B2, “Synergistic insecticide mixtures” (Bayer Cropscience AG, priority 2002, dated 2013).

On to `CC[C@H](C)[C@H]1O[C@]2(C=C[C@@H]1C)C[C@@H]1C[C@@H](C/C=C(\C)[C@@H](O[C@H]3C[C@H](OC)[C@@H](O[C@H]4C[C@H](OC)[C@@H](O)[C@H](C)O4)[C@H](C)O3)[C@@H](C)/C=C/C=C3\CO[C@@H]4[C@H](O)C(C)=C[C@@H](C(=O)O1)[C@]34O)O2` [Avermectin, abamectin], for which the results for the “LC50 after 6 days” value in series [1] and in series [3] were 0.014 ppm and 5.553 ppm, respectively. Besides, in series [2], the “LC95 after 3 days” value came out at 0.281 ppm.

On to `CN/C(=N\[N+](=O)[O-])NCC1CCOC1` (centres unmarked) [Dinotefuran, dinotefuran], for which the “LC50 after 6 days” value in series [1] came out at 13.165 ppm; in series [3], 2.861 ppm; in series [4], 27.621 ppm. In addition, the “LC95 after 3 days” value in series [2] stood at 42.07 ppm.

As for emamectin benzoate, in series [4], the “LC50 after 6 days” value is reported as 0.174 ppm.
